Columns and labels:
Assay in all cases: relative viability (nuclei count vs DMSO), 5 days (fraction); higher = more cells survive
[1] = compound: Nc1nc(Nc2ccc3c(c2)CC[C@@H](N2CCCC2)CC3)nn1-c1cc2c(nn1)-c1ccccc1CCC2 [Bemcentinib] + CC1(C)CCC(c2ccc(Cl)cc2)=C(CN2CCN(c3ccc(C(=O)NS(=O)(=O)c4ccc(N[C@H](CCN5CCOCC5)CSc5ccccc5)c(S(=O)(=O)C(F)(F)F)c4)cc3)CC2)C1 [Navitoclax] (partner 0.5 µM)
Summary of the method: (§1)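 Five library-drug doses in √10 steps were combined with a fixed anchor-drug dose, or a single drug was given alone, by pin tool to lung cancer cell lines in 1536-well plates the day after seeding. Nuclei were stained and counted after 5 days. Relative viability is the nuclei count in treated wells over that in vehicle wells, taken as the median of duplicate plates.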

[2] = compound: CC1=CC=C(C=C1)C(=O)CN2C3=C(CCCC3)SC2=N [Pifithrin_alpha] + C[C@@H](Oc1cc(-c2cnn(C3CCNCC3)c2)cnc1N)c1c(Cl)ccc(F)c1Cl [Crizotinib] (partner 1 µM)
Summary of the method: as §1

[3] = compound: Nc1nc(Nc2ccc3c(c2)CC[C@@H](N2CCCC2)CC3)nn1-c1cc2c(nn1)-c1ccccc1CCC2 [Bemcentinib] + O=C(c1cc(Cc2n[nH]c(=O)c3ccccc23)ccc1F)N1CCN(C(=O)C2CC2)CC1 [Olaparib] (partner 8 µM)
Summary of the method: as §1

[4] = compound: CC1=CC=C(C=C1)C(=O)CN2C3=C(CCCC3)SC2=N [Pifithrin_alpha] + O=C(CCCCCCC(=O)Nc1ccccc1)NO [Vorinostat] (partner 1 µM)
Summary of the method: as §1

Cell Line | relative viability ([1]; first compound 0.04 µM) | relative viability ([1]; first compound 0.1265 µM) | relative viability ([1]; first compound 0.4 µM) | relative viability ([1]; first compound 1.265 µM) | relative viability ([1]; first compound 4 µM) | relative viability ([2]; first compound 1 µM) | relative viability ([2]; first compound 3.162 µM) | relative viability ([2]; first compound 10 µM) | relative viability ([2]; first compound 31.62 µM) | relative viability ([2]; first compound 100 µM) | relative viability ([3]; first compound 0.04 µM) | relative viability ([3]; first compound 0.1265 µM) | relative viability ([3]; first compound 0.4 µM) | relative viability ([3]; first compound 1.265 µM) | relative viability ([3]; first compound 4 µM) | relative viability ([4]; first compound 1 µM) | relative viability ([4]; first compound 3.162 µM) | relative viability ([4]; first compound 10 µM) | relative viability ([4]; first compound 31.62 µM) | relative viability ([4]; first compound 100 µM)
NCI-H596 | 0.955 | 0.994 | 1.11 | 1.04 | 1.14 | 0.953 | 0.92 | 0.952 | 0.883 | 1.02 | 0.605 | 0.749 | 0.759 | 0.613 | 0.773 | 0.594 | 0.603 | 0.603 | 0.585 | 0.65
NCI-H727 | 0.348 | 0.389 | 0.435 | 0.382 | 0.522 | 0.789 | 0.78 | 0.823 | 0.556 | 0.673 | 0.678 | 0.618 | 0.813 | 0.52 | 0.747 | 0.461 | 1.18 | 1.14 | 0.777 | 1.35
NCI-H1993 | 0.897 | 0.911 | 1.02 | 0.994 | 1.08 |  | 0.771 | 0.815 | 0.797 | 0.794 | 1.05 | 1.23 | 1 | 1.15 | 1.16 | 0.771 | 0.607 | 0.754 | 0.627 | 0.793
NCI-H1437 | 1.09 | 1.16 | 1.23 | 1.13 | 1.15 | 1.05 | 0.962 | 0.892 | 0.763 | 1.02 | 0.639 | 0.656 | 0.718 | 0.651 | 0.592 | 0.78 | 0.619 | 0.565 | 0.468 | 0.356
NCI-H2023 | 0.963 | 1.12 | 1.11 | 1.12 | 0.996 | 0.505 | 0.501 | 0.381 | 0.3 | 0.37 | 0.461 | 0.487 | 0.463 | 0.511 | 0.501 | 0.726 | 0.577 | 0.545 | 0.334 | 0.464
LK-2 | 0.755 | 0.903 | 0.994 | 0.904 | 0.904 | 0.2 | 0.22 | 0.217 |  | 0.212 | 0.694 | 0.756 | 0.837 | 0.839 | 0.677 | 0.29 | 0.257 | 0.255 | 0.256 | 0.353
HOP-62 | 1.04 | 0.97 | 1.16 | 0.995 | 1.13 | 0.97 | 1.14 | 0.848 | 0.645 | 1.04 | 0.342 | 0.621 | 0.575 | 0.528 | 0.472 | 0.436 | 0.603 | 0.645 | 0.375 | 0.658
NCI-H441 | 0.504 | 0.752 | 0.637 | 0.59 | 0.598 | 0.718 | 0.739 | 0.806 | 0.56 | 0.826 | 0.606 | 0.665 | 0.53 | 0.537 | 0.402 | 0.766 | 0.735 | 0.876 |  | 0.931
LC-2-ad | 0.415 | 0.547 | 0.609 | 0.536 | 0.509 |  | 0.505 | 0.425 |  | 0.473 | 0.719 | 0.676 | 0.767 | 0.711 | 0.655 | 0.692 | 0.719 | 0.689 | 0.465 | 0.521
NCI-H838 | 1.15 | 1.28 | 1.36 | 1.13 | 1.36 | 0.829 | 0.746 | 0.667 | 0.496 | 0.625 | 0.795 | 0.933 | 0.915 | 0.864 | 0.774 | 0.593 | 0.591 | 0.555 | 0.567 | 0.525
NCI-H1944 | 0.964 | 1.02 | 1.04 | 0.977 | 1.08 | 1.13 | 1.18 | 0.866 |  | 0.958 | 0.413 | 0.414 | 0.418 | 0.436 | 0.424 | 0.503 | 0.572 | 0.505 | 0.351 | 0.395
CAL-12T | 1.12 | 1.28 | 1.25 | 1.19 | 1.32 |  | 0.656 | 0.58 | 0.5 | 0.555 | 0.705 | 0.751 | 0.716 | 0.77 | 0.698 | 0.699 | 0.73 | 0.706 |  | 0.651
EPLC-272H |  | 1.04 | 1.19 | 1.33 | 1.43 |  | 0.921 | 0.805 | 0.601 | 1.05 | 0.753 | 1.02 | 0.975 | 0.833 | 0.761 | 0.472 | 0.419 | 0.244 | 0.177 | 0.27
NCI-H2170 | 0.701 | 0.636 | 0.627 | 0.675 | 0.638 | 1.3 | 1.32 | 1.24 | 0.96 | 1.19 | 0.563 | 0.661 | 0.567 | 0.583 | 0.589 | 0.791 | 0.873 | 0.837 | 0.681 | 0.842
NCI-H1915 | 0.805 | 0.81 | 0.817 | 0.788 | 0.788 | 0.867 | 0.979 | 0.912 |  | 1.25 | 0.282 | 0.242 | 0.243 | 0.232 | 0.26 | 0.456 | 0.527 | 0.418 |  | 0.543
NCI-H2087 | 1.16 | 1.03 | 1.15 | 0.992 | 1.02 | 0.95 | 0.796 | 0.818 | 0.706 | 0.895 | 0.638 | 0.65 | 0.616 | 0.614 | 0.644 | 0.777 | 0.877 | 0.968 | 0.672 | 0.618
